From ChEMBL document CHEMBL2016471, “5-benzylidenerhodanine and 5-benzylidene-2-4-thiazolidinedione based antibacterials” (2012)
Values after ≈ are worked out from the molar mass of the structure shown. Active and inactive are the calls of the source. The calls are words filed in the database; no cut-off is given here.

Columns and labels:
[1] = tested on: Staphylococcus aureus; assay: Antibacterial activity against Staphylococcus aureus ATCC 31890; type: functional
[2] = tested on: Staphylococcus epidermidis; assay: Antibacterial activity against Staphylococcus epidermidis; type: functional
[3] = tested on: Bacillus subtilis; assay: Antibacterial activity against Bacillus subtilis ATCC 6633; type: functional
[4] = tested on: Escherichia coli; assay: Antibacterial activity against Escherichia coli K-12; type: functional, organism-based
[5] = tested on: Staphylococcus aureus; assay: Bacteriostatic activity against Staphylococcus aureus after 6 hrs; type: functional, organism-based
[6] = tested on: Escherichia coli; assay: Antibacterial activity against TolC-deficient Escherichia coli; type: functional

| SMILES | MIC [1] | MIC [2] | MIC [3] | Activity [4] | Activity [5] | MIC [6] |
| --- | --- | --- | --- | --- | --- | --- |
| O=C1NC(=S)S/C1=C\c1ccco1 | 16 µg/mL (≈ 75.7 µM) | 16 µg/mL (≈ 75.7 µM) | > 64 µg/mL | inactive | – | – |
| CCCc1ccccc1NC(=O)[C@H](Cc1ccc(O)cc1)NC(=O)c1ccc(/C=C2\SC(=S)NC2=O)cc1 | > 64 µg/mL | > 64 µg/mL | 8 µg/mL (≈ 14.7 µM) | inactive | – | – |
| CCCc1ccccc1NC(=O)[C@H](COCc1ccccc1)NC(=O)c1ccc(/C=C2\SC(=S)NC2=O)cc1 | > 64 µg/mL | > 64 µg/mL | 8 µg/mL (≈ 14.3 µM) | inactive | – | – |
| CCCc1ccccc1NC(=O)[C@H](COC(C)(C)C)NC(=O)c1ccc(/C=C2\SC(=S)NC2=O)cc1 | 16 µg/mL (≈ 30.4 µM) | 16 µg/mL (≈ 30.4 µM) | 8 µg/mL (≈ 15.2 µM) | inactive | – | – |
| CCCc1ccccc1OC[C@H](O)COc1ccc(/C=C2\SC(=O)NC2=O)cc1 | > 64 µg/mL | > 64 µg/mL | 8 µg/mL (≈ 19.3 µM) | inactive | – | – |
| CCCc1ccccc1NC(=O)[C@H](CC(C)C)NC(=O)c1ccc(/C=C2\SC(=S)NC2=O)cc1 | > 64 µg/mL | > 64 µg/mL | 32 µg/mL (≈ 64.6 µM) | inactive | – | – |
| CCCc1ccccc1NC(=O)[C@H](CO)NC(=O)c1ccc(/C=C2\SC(=O)NC2=O)cc1 | > 64 µg/mL | > 64 µg/mL | > 64 µg/mL | inactive | – | – |
| CCCc1ccccc1NC(=O)[C@H](Cc1ccccc1)NC(=O)c1ccc(/C=C2\SC(=O)NC2=O)cc1 | > 64 µg/mL | > 64 µg/mL | 8 µg/mL (≈ 15.6 µM) | inactive | – | – |
| CCCc1ccccc1OC[C@H](O)COc1ccc(/C=C2\SC(=S)NC2=O)cc1 | 16 µg/mL (≈ 37.2 µM) | 32 µg/mL (≈ 74.5 µM) | 16 µg/mL (≈ 37.2 µM) | inactive | Active | – |
| CCCc1ccccc1NC(=O)[C@H](C)NC(=O)c1ccc(/C=C2\SC(=S)NC2=O)cc1 | > 64 µg/mL | > 64 µg/mL | 32 µg/mL (≈ 70.5 µM) | inactive | – | – |
| CCCc1ccccc1NC(=O)[C@H](Cc1ccccc1)NC(=O)c1ccc(/C=C2\SC(=S)NC2=O)cc1 | > 64 µg/mL | > 64 µg/mL | > 64 µg/mL | inactive | – | – |
| CCCc1ccccc1NC(=O)[C@H](C)NC(=O)c1ccc(/C=C2\SC(=O)NC2=O)cc1 | > 64 µg/mL | > 64 µg/mL | > 64 µg/mL | inactive | – | – |
| O=C1NC(=O)/C(=C/c2ccccc2)S1 | > 64 µg/mL | > 64 µg/mL | > 64 µg/mL | inactive | – | – |
| CCCc1ccccc1NC(=O)[C@H](CC(C)C)NC(=O)c1ccc(/C=C2\SC(=O)NC2=O)cc1 | > 64 µg/mL | > 64 µg/mL | 8 µg/mL (≈ 16.7 µM) | inactive | – | – |
| O=C1NC(=O)/C(=C/c2ccc(C(=O)O)cc2)S1 | > 64 µg/mL | > 64 µg/mL | > 64 µg/mL | inactive | – | – |
| O=C1NC(=S)S/C1=C\c1ccc(C(=O)O)cc1 | > 64 µg/mL | > 64 µg/mL | > 64 µg/mL | inactive | – | – |
| O=C1NC(=S)S/C1=C\c1ccc2ccccc2c1 | 0.5 µg/mL (≈ 1.84 µM) | 0.5 µg/mL (≈ 1.84 µM) | > 64 µg/mL | inactive | – | 8 µg/mL (≈ 29.5 µM) |
| CCCc1ccccc1NC(=O)[C@H](CO)NC(=O)c1ccc(/C=C2\SC(=S)NC2=O)cc1 | > 64 µg/mL | > 64 µg/mL | > 64 µg/mL | inactive | – | – |
| O=C1NC(=O)/C(=C/c2cccnc2)S1 | > 64 µg/mL | > 64 µg/mL | > 64 µg/mL | inactive | – | – |
